Experimental data: the NIST ThermoML archive (doi:10.1021/acs.jced.9b00507)

Settings: 100 kPa, Liquid; for viscosity: Concentric cylinders viscometry; for mass density: Vibrating tube method

CCCCCCn1cc[n+](C)c1.O=[N+]([O-])[O-] [1-hexyl-3-methylimidazolium nitrate]
Settings	mass density [kg/m3]	viscosity [mPa·s]
293.15 K	1120.3	804.17
298.15 K	1117.5	545.25
303.15 K	1114.3	369.14
308.15 K	1111.1	257.59
313.15 K	1107.8	185.67
318.15 K	1104.7	140.18
323.15 K	1101.6	110.94
